Reference: ChEMBL document CHEMBL1156829 (Proc Natl Acad Sci U S A, 2008)

Assays:
Plasmodium falciparum [1] = test: NOVARTIS: Inhibition of Plasmodium falciparum 3D7 (drug-susceptible) proliferation in erythrocyte-based infection assay; assay type: functional, organism-based; settings: Plasmodium falciparum, 3D7
Plasmodium falciparum [2] = test: NOVARTIS: Inhibition of Plasmodium falciparum W2 (drug-resistant) proliferation in erythrocyte-based infection assay; assay type: functional, organism-based; settings: Plasmodium falciparum, W2; read-out: EC50
[3] = NOVARTIS: Cytotoxicity against human hepatocellular carcinoma cell line (Huh7); assay type: toxicity, cell-based, Huh-7; settings: Huh7 cells (hepatocellular carcinoma cell line)

SMILES | EC50 (Plasmodium falciparum [1]) [µM] | EC50 (Plasmodium falciparum [2]) [µM] | CC50 [3] [µM]
Fc1ccccc1CCNc1ncnc2c1[nH]c1ccccc12 | 0.165 | 0.15 | 14.3
COCC(=O)N(C)CCCNc1ccnc2cc(Cl)ccc12 | 0.156 | 0.346 | > 10
O=C(NCCc1nc(-c2cccnc2)n[nH]1)C12CC3CC(CC(C3)C1)C2 | > 1.25 | 0.581 | > 10
CSc1cccc(NC(=O)C2C3C=CC4(O3)C2C(=O)N(CCN2CCCCC2)C4C(=O)NC2CCCC(C)C2C)c1 (stereo not drawn) | > 11.1 | 1.9 | 48.1
CCCCCC[n+]1ccccc1C=Cc1ccc(N(C)C)cc1 | 0.118 | 0.238 | 1.6
CCCCNCCN1CCN(c2cc(OC)cc(OC)c2)C[C@@H]1Cc1ccccc1 | > 1.25 | 0.938 | 10.3
Cc1ccccc1OCc1nnc(SCC(=O)Nc2ccc([N+](=O)[O-])cc2)n1C | > 1.25 | 0.0267 | > 10
Cc1oc2c(c1C(=O)NCCCn1ccnc1)C(=O)c1ccccc1C2=O | 0.0904 | 0.0391 | 0.27
Cc1c(C(=O)N2CCN(c3ccc([N+](=O)[O-])cc3)CC2)sc2ncnc(N(C)c3ccccc3)c12 | 1.65 | > 1.25 | > 10
COc1ccc(CCN(C(=S)Nc2ccccc2)C2CC(=O)N(c3ccc(F)cc3)C2=O)cc1OC (stereo not drawn) | > 1.74 | 1.56 | > 1.91
CCN(CC)S(=O)(=O)c1ccc(C(=O)NCc2nnc(SCC(=O)N3CCc4ccccc43)n2-c2ccccc2OC)cc1 | > 1.25 | 0.0267 | > 10
CCN1CCN(c2cc(C)c3cc(NC(=O)C=Cc4ccc(OC)cc4)ccc3n2)CC1 | 2.02 | 2.75 | > 100
CCn1c2ccccc2c2cc(C=NNC(=O)c3nnn(-c4nonc4N)c3-c3ccccc3)ccc21 | > 1.25 | > 0.76 | > 10
COC(=O)C1=C(C)N(C)C(C)=C(C(=O)OC)C1c1ccc(C)cc1 | > 0.811 | > 0.567 | > 9.49
CN(CCCNc1ccnc2cc(Cl)ccc12)C(=O)CCc1ccccc1 | 0.136 | 0.187 | > 12.1
COc1cc(OC)c(NC(=O)C2c3ccccc3C(=O)N(CC(C)C)C2c2cccs2)cc1Cl (stereo not drawn) | 0.114 | 0.0905 | > 100
CCCOC(=O)CSc1nc(N)c(C#N)c(-c2ccco2)c1C#N | 1.89 | 1.22 | > 100
CC(=O)N(C1=C(N2CCCC2)C(=O)c2ccccc2C1=O)c1ccc(F)c(F)c1 | 0.407 | 0.174 | 20.2
COC(=O)c1ccc2c(=O)n(Cc3ccco3)c(SCC(=O)n3nc(N)cc3C)nc2c1 | 0.337 | 0.819 | > 100
COc1cc(CN(CC[C@H](c2ccccc2)c2c(O)ccc3ccccc23)Cc2ccccc2)cc(OC)c1 | 0.702 | 0.0754 | > 10
CC[C@@H]1CCC[C@H](C)CC[C@@H](O[C@@H]2O[C@@H](C)[C@@H](O)[C@@H](N)[C@H]2O)[C@H](CC)CCCNC1=O | 1.58 | > 1.25 | > 6.25
COc1cc(CNc2ccc(N3CCCCC3)cc2)cc(Cl)c1OCc1ccc(F)cc1 | 3.04 | 1.54 | > 100
COC(=O)C1=C(C)NC2=C(C(=O)CC(c3ccc(Cl)cc3)C2)C1c1ccc(F)cc1 (stereo not drawn) | 0.188 | 0.0982 | > 100

SMILES | EC50 (Plasmodium falciparum [1]) [µM] | EC50 (Plasmodium falciparum [2]) [µM] | CC50 [3] [µM]
Cc1nc(-c2ccccc2)nc(C(=O)N2CCN(C(=O)NC3CCCCC3)C(C)C2)c1C(=O)OC(C)C (stereo not drawn) | 0.0844 | 0.0417 | > 100
CCCCS(=O)(=O)N(C)CCCNc1ccnc2cc(Cl)ccc12 | 0.0688 | < 0.00918 | > 10
Cc1ccc(NC(=O)c2ccc(NCCCN3CCCCCC3)c([N+](=O)[O-])c2)cc1F | 0.0941 | 0.371 | 16.9
CCCCCN(C(=O)c1ccc(C)cc1)C(CC)c1nc2ccccc2c(=O)n1-c1ccccc1OC (stereo not drawn) | 0.893 | 1.07 | > 10
COC(=O)c1sc2nc(CN(C)Cc3nccs3)ccc2c1NC(=O)c1ccc(C)s1 | > 1.33 | 1.15 | > 2.84
CCc1cc2c3c(c1)C1(C(=O)N3C(C)(C)CC2C)C(C#N)=C(N)Oc2cc(C)oc(=O)c21 (stereo not drawn) | 1.47 | 0.228 | > 100
CC(C)CN(CC(=O)N1CCC(Nc2nsc3ccccc23)C1)S(C)(=O)=O (stereo not drawn) | 1.98 | 3.94 | 15.7
CCOC(=O)C1=CN(c2cc(C)ccc2C)C=C(C(=O)OCC)C1c1ccccc1OCC | 0.264 | 0.328 | > 100
O=C(NCCC1=CCCCC1)c1ccc2c(=O)n(-c3ccccc3)c(SCc3nc4ccccc4[nH]3)nc2c1 | > 1.25 | 1.46 | > 0.912
COC(=O)[C@@H]1C[C@H](NC(=O)c2ccc(OC)cc2OC)CN1Cc1cccc2ccccc12 | > 1.25 | > 0.0809 | > 10
O=C(Nc1cc(Cl)cc(Cl)c1)Nc1ccccc1C(=O)NCC1CC1 | > 1.18 | < 0.0124 | > 10
Cc1nc(-c2cnccc2C(F)(F)F)sc1C(=O)NN | > 11 | 1.39 | > 100
O=C1CC(C(=O)N2CCC(c3nc(-c4cccnc4)ncc3-c3ccccc3)CC2)c2ccccc21 (stereo not drawn) | 0.459 | 0.15 | > 100
CCCCCCc1ccc(C(=O)N(CC(=O)Nc2cc(C(C)(C)C)nn2-c2ccc(Cl)c(Cl)c2)C(C)C)cc1 | 1.39 | > 0.752 | > 10
COc1c(N2CCN(Cc3c(C)cc(C)cc3C)CC2)c2nc3oc2c2c(OC(=O)C(C)(C)C)c(C)c4c(c12)[C@@H](O)[C@@](C)(OC=C[C@H](OC)[C@@H](C)[C@@H](OC(C)=O)C(C)[C@H](O)[C@H](C)[C@@H](O)C(C)C=CC=C3C)O4 (stereo partly drawn) | 0.221 | 0.554 | > 10
Cc1ccc2[nH]c3c(NCCN4CCCC4)ncnc3c2c1 | 0.514 | 0.737 | 46.5
COc1ccc(CCNC(=O)CN(c2ccc(OC)c(OC)c2)S(=O)(=O)c2ccc(C)cc2)cc1OC | > 12.5 | 1.33 | > 100
O=C(O)c1ccc(S(=O)(=O)c2ccc3c(c2)C(=O)N(c2ccc(Sc4ccc([N+](=O)[O-])cc4)cc2)C3=O)cc1 | > 1.25 | 2.07 | > 10
Cc1cccc(-n2nc(C(C)(C)C)cc2NC(=O)CN(C(=O)/C=C/c2ccccc2)C(C)C)c1C | > 1.75 | 0.0855 | > 10
CC(=O)c1ccc(NC(=O)CSc2nnc3c4c(-c5ccc(F)cc5)csc4ncn23)cc1 | > 12.5 | 0.0239 | > 100
CC(C)CCN(CCC(C)C)CC(O)Cn1c2ccc(Cl)cc2c2cc(Cl)ccc21 (stereo not drawn) | 0.292 | 0.0828 | > 100
CCOc1cccc(Nc2c3c(nc4ncnn24)CCC3)c1 | 0.597 | 0.374 | > 100
COc1cc(NC(C)CCCN(Cc2ccc(OC)c(OC)c2)C(=O)Nc2cccc(Cl)c2Cl)c2ncccc2c1 (stereo not drawn) | 0.691 | 0.203 | 6.29
